The values that follow are results of earlier work, collected in patent US11690800B2, “Non-irritating, non-blurring, photostable ophthalmic sunscreen composition” (A. EBBIE SOROUDI, M.D., M.S., A PROFESSIONAL MEDICAL …, priority 2014, dated 2023).

The conditions of series [1]: oil phase and water phase of a sunscreen.
For series [2] the following is noted: formulated into a dermatologic sunscreen.

On to `CC(C)(C)CC(C)(C)c1cc(Cc2cc(C(C)(C)CC(C)(C)C)cc(-n3nc4ccccc4n3)c2O)c(O)c(-n2nc3ccccc3n2)c1` [Bisoctrizole, 2,2′-methanediylbis[6-(2H-benzotriazol-2-yl)-4-(2,4,4-trimethylpentan-2-yl)phenol]], for which the “dissolution in oil or water phase” value in series [1] is listed as “dissolves poorly in both”. For the same molecule, the skin penetration entry in series [2] was “minimal skin penetration”.
